SMILES strings stand for the structures. Activity calls are given as the source filed them. No cut-off for these calls is given here.

Experiment [1] has as its target T1, Tyrosine-protein phosphatase non-receptor type 1 (Homo sapiens) (UniProt P18031).
T1 sequence (whole entry): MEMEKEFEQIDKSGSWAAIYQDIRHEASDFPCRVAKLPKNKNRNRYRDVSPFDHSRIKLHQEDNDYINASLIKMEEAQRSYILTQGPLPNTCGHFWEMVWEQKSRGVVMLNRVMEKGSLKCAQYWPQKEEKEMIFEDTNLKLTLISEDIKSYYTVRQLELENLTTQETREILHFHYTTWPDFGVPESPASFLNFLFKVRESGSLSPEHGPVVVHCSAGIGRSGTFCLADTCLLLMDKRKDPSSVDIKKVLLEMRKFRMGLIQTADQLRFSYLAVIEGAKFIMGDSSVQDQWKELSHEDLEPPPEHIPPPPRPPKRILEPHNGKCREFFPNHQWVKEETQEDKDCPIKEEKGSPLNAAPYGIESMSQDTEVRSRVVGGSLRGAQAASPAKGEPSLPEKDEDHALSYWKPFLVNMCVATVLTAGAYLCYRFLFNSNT
The experiment in a line: Inhibition of human recombinant PTP1B using phosphopeptide as substrate at 10 uM after 30 mins by malachite green assay relative to control.

The test system of experiment [2] is Rattus norvegicus. The experiment in a line: Antihyperglycemic activity in streptozotocin-induced Sprague-Dawley albino rat diabetic model assessed as reduction of blood glucose AUC (0 to 24 hrs) at 100 mg/kg, po by glucometer relative to control. The format is functional. Details: scale not given: the % may be the effect or the level left.
The subject of experiment [3] is Rattus norvegicus. In words: Antihyperglycemic activity in streptozotocin-induced Sprague-Dawley albino rat diabetic model assessed as reduction of blood glucose AUC (0 to 5 hrs) at 100 mg/kg, po by glucometer relative to control. Details: scale not given: the % may be the effect or the level left. The class given is functional.
Experiment [4] addresses T2, Tyrosine-protein phosphatase non-receptor type 1 (Homo sapiens, UniProt P18031).
T2 sequence (P18031 whole entry): T1 sequence (whole entry)
In words: Inhibition of human recombinant PTP1B using phosphopeptide as substrate after 30 mins by malachite green assay.

In experiment [5] the test system is Mus musculus. In words: Antihyperglycemic activity in C57BL/Ks db/db mouse assessed as reduction of blood glucose level at 30 mg/kg measured from day 8 to day 14. The format is functional, organism-based. Details: dose 30 mg/kg.
The subject of experiment [6] is Mus musculus. The experiment in a line: In vivo inhibition of PTP1B in skeletal muscle of C57BL/Ks db/db mouse assessed as upregulation of p-IRSI protein expression at 30 mg/kg, po by Western blot analysis relative to vehicle-treated sham control. The format is functional, Muscle tissue. In general terms: Immunoblotting shows a protein as a band on a membrane.
The test system of experiment [7] is Mus musculus. In words: Antidiabetic activity in C57BL/Ks db/db mouse assessed as improvement of HOMA index at 30 mg/kg relative to vehicle-treated sham control. The format is functional.
Experiment [8] concerns Mus musculus. The experiment in a line: Antidiabetic activity in C57BL/Ks db/db mouse assessed as restoration of altered insulin level in serum at 30 mg/kg relative to vehicle-treated sham control. The class given is functional.
The subject of experiment [9] is Mus musculus. In words: Antidiabetic activity in C57BL/Ks db/db mouse assessed as normalization of fasting blood glucose level at 30 mg/kg relative to vehicle-treated sham control. The format is functional.
Experiment [10] relates to Mus musculus. The experiment in a line: Antidyslipidemic activity in C57BL/Ks db/db mouse assessed as increase in serum HDL-cholesterol level at 30 mg/kg measured on day 10 to 15 relative to vehicle-treated sham control. The class given is functional.
In experiment [11] the test system is Mus musculus. In words: Antidyslipidemic activity in C57BL/Ks db/db mouse assessed as reduction of serum cholesterol level at 30 mg/kg measured on day 10 to 15 relative to vehicle-treated sham control. The format is functional.
Experiment [12] relates to Mus musculus. The experiment in a line: Antidyslipidemic activity in C57BL/Ks db/db mouse assessed as reduction of serum triglyceride level at 30 mg/kg measured on day 10 to 15 relative to vehicle-treated sham control. The class given is functional.
Experiment [13] deals with Mus musculus. The experiment in a line: Antihyperglycemic activity in C57BL/Ks db/db mouse assessed as reduction of blood glucose AUC (0 to 120 mins) at 30 mg/kg measured on day 15 by OGTT relative to vehicle-treated sham control. The format is functional.
The test system of experiment [14] is Mus musculus. In words: Antihyperglycemic activity in C57BL/Ks db/db mouse assessed as reduction of blood glucose AUC (0 to 120 mins) at 30 mg/kg measured on day 10 by OGTT relative to vehicle-treated sham control. The class given is functional.
Experiment [15] has as its target T2, Tyrosine-protein phosphatase non-receptor type 1. The experiment in a line: Competitive inhibition of human recombinant PTP1B using IR5 as substrate by Lineweaver-Burk plot analysis.
Experiment [16] relates to Mus musculus. The experiment in a line: Antihyperglycemic activity in C57BL/Ks db/db mouse assessed as reduction of blood glucose level at 10 mg/kg measured from day 6 to day 14. The class given is functional, organism-based. On the set-up: dose 10 mg/kg.
The subject of experiment [17] is Mus musculus. The experiment in a line: In vivo inhibition of PTP1B in skeletal muscle of C57BL/Ks db/db mouse assessed as upregulation of p-IRSI protein expression at 10 mg/kg, po by Western blot analysis relative to vehicle-treated sham control. The format is functional, Muscle tissue.
In experiment [18] the test system is Mus musculus. In words: Antidiabetic activity in C57BL/Ks db/db mouse assessed as improvement of HOMA index at 10 mg/kg relative to vehicle-treated sham control. The format is functional.
The subject of experiment [19] is Mus musculus. In words: Antidiabetic activity in C57BL/Ks db/db mouse assessed as restoration of altered insulin level in serum at 10 mg/kg relative to vehicle-treated sham control. The format is functional.
Experiment [20] deals with Mus musculus. In words: Antidiabetic activity in C57BL/Ks db/db mouse assessed as normalization of fasting blood glucose level at 10 mg/kg relative to vehicle-treated sham control. The format is functional.
Experiment [21] concerns Mus musculus. In words: Antidyslipidemic activity in C57BL/Ks db/db mouse assessed as increase in serum HDL-cholesterol level at 10 mg/kg measured on day 10 to 15 relative to vehicle-treated sham control. The class given is functional.
In experiment [22] the test system is Mus musculus. In words: Antidyslipidemic activity in C57BL/Ks db/db mouse assessed as reduction of serum cholesterol level at 10 mg/kg measured on day 10 to 15 relative to vehicle-treated sham control. The class given is functional.
In experiment [23] the test system is Mus musculus. In words: Antidyslipidemic activity in C57BL/Ks db/db mouse assessed as reduction of serum triglyceride level at 10 mg/kg measured on day 10 to 15 relative to vehicle-treated sham control. The class given is functional.
Experiment [24] deals with Mus musculus. The experiment in a line: Antihyperglycemic activity in C57BL/Ks db/db mouse assessed as reduction of blood glucose AUC (0 to 120 mins) at 10 mg/kg, po measured on day 15 by OGTT relative to vehicle-treated sham control. The class given is functional.
The subject of experiment [25] is Mus musculus. In words: Antihyperglycemic activity in C57BL/Ks db/db mouse assessed as reduction of blood glucose AUC (0 to 120 mins) at 10 mg/kg measured on day 10 by OGTT relative to vehicle-treated sham control. The class given is functional.

As for `O=C(NCc1cccc([N+](=O)[O-])c1)NCc1ccco1`, in experiment [1], the inhibition (as a rule, the change of the read-out against control, counted positive when it falls) is 46.8%.
On the same count and under the same terms, the result for `COc1cc(CNC(=O)NCc2cccc([N+](=O)[O-])c2)cc(OC)c1` reads 2.81%.
On to `CC(=O)Nc1ccc(CNC(=O)NCc2ccccc2)cc1`, for which the figures for the Activity in the experiment on Rattus norvegicus [2] and with Rattus norvegicus [3] were 14.8% and 14.2%, respectively. Moreover, the concentration for half-maximal inhibition (IC50) (as a rule, the midpoint of a concentration-inhibition curve) in [4] amounted to 9.39 µM. Also, the inhibition in experiment [1] worked out at 60.9%.
In the case of `O=C(NCc1cccc([N+](=O)[O-])c1)NCc1cccc(-c2cccc([N+](=O)[O-])c2)n1`, the inhibition in experiment [1] is 40%.
On the same count and under the same terms, the figure for `O=C(NCc1ccccc1)NCc1cccc([N+](=O)[O-])c1` is 2.4%.
For `O=C(NCc1cccc([N+](=O)[O-])c1)NCc1ccccc1[N+](=O)[O-]`, the outcome in the experiment on Mus musculus [5] was Active. Moreover, the “fold change (FC)” value in the experiment on Mus musculus [6] amounted to 1.25. The Efficacy is listed as 69.7% in the experiment on Mus musculus [7]; 34.5% with Mus musculus [8]; 52.3% in the experiment with Mus musculus [9]; 46.8% in the experiment on Mus musculus [10]; 16.3% in the experiment with Mus musculus [11]; 8.9% in the experiment with Mus musculus [12]. Also, the Efficacy in the experiment on Mus musculus [13] was 35.9%; with Mus musculus [14] it was 24.1%. In addition, the Activity in the experiment on Rattus norvegicus [2] was 21.7%; in the experiment on Rattus norvegicus [3], 20.4%. Moreover, in experiment [15], the Ki – broadly, a dissociation constant, usually derived from enzyme kinetics or from competition with a known ligand – turned out to be 7.88 µM. Also, in [4], the IC50 was found to be 7.47 µM. Moreover, in experiment [1], the inhibition is 79.4%.
With `COc1ccc(CNC(=O)NCc2cccc([N+](=O)[O-])c2)cc1`, in [1], the inhibition is 2.85%.
On the same count and under the same terms, the result for `O=C(NCc1ccccc1)NCc1ccc([N+](=O)[O-])cc1` reads 0.9%; that for `CC(C)(C)c1cc(CNC(=O)NCc2ccccc2)c(O)c(C(C)(C)C)c1`, 18.9%; that for `COc1cc(Cl)c(CNC(=O)NCc2ccccc2)c(Cl)c1OC`, 13.7%.
The same measure, in the same setting: the result for `COc1cc(CNC(=O)NCc2cccc([N+](=O)[O-])c2)cc(OC)c1OC` reads 7.5%; that for `O=C(NCc1ccccc1)NCc1c[nH]c2ccc(Cl)cc12`, 19%.
With `O=C(NCc1cccc(Cl)c1)NCc1cccc([N+](=O)[O-])c1`, the inhibition in [1] is 32.9%.
For the compound `O=C(NCc1ccccc1)NCc1ccc(-c2ccc([N+](=O)[O-])cc2)o1`, the Activity was 18.8% in the experiment with Rattus norvegicus [2] and 12.5% in the experiment on Rattus norvegicus [3]. The inhibition in experiment [1] is 21.4%.
Consider `O=C(NCc1cccc([N+](=O)[O-])c1)NCc1ccc(-c2ccc([N+](=O)[O-])cc2)o1`, for which the figures for the Activity with Rattus norvegicus [2] and in the experiment on Rattus norvegicus [3] were 20% and 18.4%, respectively. Also, the half-maximal inhibitory concentration (IC50) in [4] is 8.06 µM. For the same compound, the inhibition in experiment [1] was 68.4%.
Consider `COc1cc(CNC(=O)NCc2ccccc2)ccc1O`, for which the inhibition in experiment [1] came to 14.9%.
In the case of `O=C(NCc1ccccc1)NCc1ccccc1[N+](=O)[O-]`, the inhibition in experiment [1] came out at 2.1%.
Same read-out and setting: the result for `O=C(NCc1ccccc1)NCc1ccsc1` reads 31.2%.
For `CCc1ccc(CCOc2ccc(CC3SC(=O)NC3=O)cc2)nc1` (stereo unspecified) [PIOGLITAZONE], the outcome in the experiment with Mus musculus [16] was Active. Also, in the experiment on Mus musculus [17], the “fold change (FC)” value was determined as 1.37. Moreover, the Efficacy in the experiment with Mus musculus [18] is recorded as 70.3%; in the experiment on Mus musculus [19] it was 46.1%; with Mus musculus [20] it was 64.7%; with Mus musculus [21], 11.1%; in the experiment with Mus musculus [22] it was 9.17%; in the experiment on Mus musculus [23], 12.6%. For the same compound, the results for the Efficacy in the experiment with Mus musculus [24] and in the experiment with Mus musculus [25] were 52.9% and 40.8%, respectively.
Take `COc1cc(Cl)c(CNC(=O)NCc2cccc([N+](=O)[O-])c2)c(Cl)c1OC`: the Activity in the experiment on Rattus norvegicus [2] came out at 2.54%; in the experiment on Rattus norvegicus [3] it was 7.26%. In addition, the IC50 in [4] was determined as 9.91 µM. Further, the inhibition in experiment [1] stood at 56.6%.
Take `CN(C)C(=N)NC(=N)N` [METFORMIN]: the Activity was determined as 23.3% in the experiment on Rattus norvegicus [2] and 21% in the experiment with Rattus norvegicus [3].
As to `COc1cc(OC)c(CNC(=O)NCc2ccccc2)c(OC)c1`, the Activity in the experiment with Rattus norvegicus [2] is recorded as 18.6%; in the experiment with Rattus norvegicus [3] it was 16.1%. Besides, the half-maximal inhibitory concentration (IC50) in experiment [4] came to 7.6 µM. The inhibition in experiment [1] was 78.8%.
As for `Cc1ccc(C(=O)Nc2ccc(S(=O)(=O)O)c3cc(S(=O)(=O)O)cc(S(=O)(=O)O)c23)cc1NC(=O)c1cccc(NC(=O)Nc2cccc(C(=O)Nc3cc(C(=O)Nc4ccc(S(=O)(=O)O)c5cc(S(=O)(=O)O)cc(S(=O)(=O)O)c45)ccc3C)c2)c1`, the inhibition in experiment [1] came to 60%.

These data come from ChEMBL document CHEMBL3217472, “Identification of novel urea derivatives as PTP1B inhibitors: synthesis, biological evaluation and structureactivity relationships” (Medchemcomm, 2013).
